Target: Stromelysin-1 (Homo sapiens, UniProt P08254)
Test: Inhibition of matrix metalloprotease-3 (MMP-3)

Chain of Stromelysin-1 (P08254 whole entry): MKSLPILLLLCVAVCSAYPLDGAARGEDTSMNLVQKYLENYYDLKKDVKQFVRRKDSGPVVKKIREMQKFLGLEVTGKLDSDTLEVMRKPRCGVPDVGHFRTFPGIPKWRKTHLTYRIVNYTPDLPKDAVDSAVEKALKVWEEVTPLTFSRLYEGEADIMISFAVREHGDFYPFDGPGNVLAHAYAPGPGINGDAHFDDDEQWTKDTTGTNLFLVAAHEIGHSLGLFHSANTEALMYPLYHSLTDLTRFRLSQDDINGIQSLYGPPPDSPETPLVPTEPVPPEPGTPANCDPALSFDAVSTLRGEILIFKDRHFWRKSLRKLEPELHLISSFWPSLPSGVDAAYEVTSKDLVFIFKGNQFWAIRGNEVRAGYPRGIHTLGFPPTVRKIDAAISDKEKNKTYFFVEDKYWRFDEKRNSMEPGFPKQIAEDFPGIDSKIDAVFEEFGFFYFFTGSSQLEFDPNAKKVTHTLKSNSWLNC

Compound | IC50 [µM]
CC(C)C[C@H](CC(=O)NO)C(=O)N1NCCC[C@H]1CO | 2.7
COC[C@@H]1CCCNN1C(=O)[C@@H](CC(=O)NO)CC(C)C | 20.4
CCCCC[C@H](CC(=O)NO)C(=O)N1NCCC[C@H]1C(=O)N[C@@H](C(=O)CC)C(C)CC (stereo partly specified) | 0.3
COC(=O)[C@@H]1CCCNN1C(=O)[C@@H](CC(=O)NO)CC(C)C | 0.81
CC(C)C[C@H](CC(=O)NO)C(=O)N1CCCCN1 | 9.67
CC(C)C[C@H](CC(=O)NO)C(=O)N1NCCC[C@H]1C(=O)O | 0.6
